# From the supplement of paper PMC10307832
# Assays:
# Assay in all cases: relative viability (nuclei count vs DMSO), 5 days (fraction); higher = more cells survive
# NCI-H1993 = tested on: NCI-H1993
# Outline: (§1)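 Lung cancer cell lines were seeded in 1536-well plates and dosed by pin tool the next day, with either a single drug or a fixed anchor-drug dose combined with five library-drug doses (not always all listed) spaced in √10 steps. Five days later, one step fixed the cells and stained their nuclei (final 0.05% Triton X-100, 1% formaldehyde, 1 ug/ml Hoechst), and nuclei were counted on 4× images. Relative viability is the nuclei count in treated wells divided by the count in vehicle wells, and each value is the median of duplicate plates.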
# NCI-H838 = tested on: NCI-H838
# Outline: as §1
# NCI-H2170 = tested on: NCI-H2170
# Outline: as §1
# ABC-1 = tested on: ABC-1
# Outline: as §1
# NCI-H1666 = tested on: NCI-H1666
# Outline: as §1
# LCLC-103H = tested on: LCLC-103H
# Outline: as §1
# NCI-H23 = tested on: NCI-H23
# Outline: as §1
# HCC-44 = tested on: HCC-44
# Outline: as §1
# NCI-H1355 = tested on: NCI-H1355
# Outline: as §1
# NCI-H520 = tested on: NCI-H520
# Outline: as §1
# 201T = tested on: 201T
# Outline: as §1
# HOP-62 = tested on: HOP-62
# Outline: as §1
# COR-L23 = tested on: COR-L23
# Outline: as §1
# NCI-H322M = tested on: NCI-H322M
# Outline: as §1
# NCI-H1651 = tested on: NCI-H1651
# Outline: as §1
# NCI-H2347 = tested on: NCI-H2347
# Outline: as §1
# NCI-H2228 = tested on: NCI-H2228
# Outline: as §1
# CAL-12T = tested on: CAL-12T
# Outline: as §1
# LC-2-ad = tested on: LC-2-ad
# Outline: as §1
# NCI-H647 = tested on: NCI-H647
# Outline: as §1
# NCI-H661 = tested on: NCI-H661
# Outline: as §1
# NCI-H2085 = tested on: NCI-H2085
# Outline: as §1
# NCI-H1395 = tested on: NCI-H1395
# Outline: as §1
smiles,measurement,setting,value
O=C(O)CCCCC(CCSCc1ccccc1)SCc1ccccc1 (centres undefined) [CPI-613] + CCNC(=O)c1noc(-c2cc(C(C)C)c(O)cc2O)c1-c1ccc(CN2CCOCC2)cc1 [Luminespib] (partner 0.01 µM),relative viability,NCI-H1993; first compound 5 µM,0.799
same,relative viability,NCI-H1993; first compound 15.81 µM,0.296
same,relative viability,NCI-H1993; first compound 50 µM,0.917
same,relative viability,NCI-H1993; first compound 158.11 µM,0.611
same,relative viability,NCI-H1993; first compound 500 µM,0.437
same,relative viability,NCI-H838; first compound 5 µM,0.249
same,relative viability,NCI-H838; first compound 15.81 µM,0.243
same,relative viability,NCI-H838; first compound 50 µM,0.24
same,relative viability,NCI-H838; first compound 158.11 µM,0.122
same,relative viability,NCI-H838; first compound 500 µM,0.0891
same,relative viability,NCI-H2170; first compound 5 µM,0.754
same,relative viability,NCI-H2170; first compound 15.81 µM,0.573
same,relative viability,NCI-H2170; first compound 50 µM,0.524
same,relative viability,NCI-H2170; first compound 158.11 µM,0.196
same,relative viability,NCI-H2170; first compound 500 µM,0.0909
same,relative viability,ABC-1; first compound 5 µM,0.629
same,relative viability,ABC-1; first compound 50 µM,0.776
same,relative viability,ABC-1; first compound 158.11 µM,0.185
same,relative viability,ABC-1; first compound 500 µM,0.183
same,relative viability,NCI-H1666; first compound 5 µM,0.992
same,relative viability,NCI-H1666; first compound 15.81 µM,1.01
same,relative viability,NCI-H1666; first compound 50 µM,1.12
same,relative viability,NCI-H1666; first compound 158.11 µM,0.223
same,relative viability,NCI-H1666; first compound 500 µM,0.131
same,relative viability,LCLC-103H; first compound 5 µM,0.924
same,relative viability,LCLC-103H; first compound 15.81 µM,0.825
same,relative viability,LCLC-103H; first compound 50 µM,0.846
same,relative viability,LCLC-103H; first compound 158.11 µM,0.811
same,relative viability,LCLC-103H; first compound 500 µM,0.269
same,relative viability,NCI-H23; first compound 5 µM,0.224
same,relative viability,NCI-H23; first compound 15.81 µM,0.222
same,relative viability,NCI-H23; first compound 50 µM,0.234
same,relative viability,NCI-H23; first compound 158.11 µM,0.129
same,relative viability,NCI-H23; first compound 500 µM,0.0632
same,relative viability,HCC-44; first compound 5 µM,0.964
same,relative viability,HCC-44; first compound 15.81 µM,0.939
same,relative viability,HCC-44; first compound 50 µM,1.04
same,relative viability,HCC-44; first compound 158.11 µM,0.495
same,relative viability,HCC-44; first compound 500 µM,0.121
same,relative viability,NCI-H1355; first compound 5 µM,0.692
same,relative viability,NCI-H1355; first compound 15.81 µM,0.701
same,relative viability,NCI-H1355; first compound 50 µM,0.691
same,relative viability,NCI-H1355; first compound 158.11 µM,0.25
same,relative viability,NCI-H1355; first compound 500 µM,0.35
same,relative viability,NCI-H520; first compound 5 µM,0.196
same,relative viability,NCI-H520; first compound 15.81 µM,0.204
same,relative viability,NCI-H520; first compound 50 µM,0.214
same,relative viability,NCI-H520; first compound 158.11 µM,0.197
same,relative viability,NCI-H520; first compound 500 µM,0.181
same,relative viability,201T; first compound 5 µM,1.05
same,relative viability,201T; first compound 15.81 µM,0.973
same,relative viability,201T; first compound 50 µM,1.01
same,relative viability,201T; first compound 158.11 µM,0.258
same,relative viability,201T; first compound 500 µM,0.0468
same,relative viability,HOP-62; first compound 5 µM,0.882
same,relative viability,HOP-62; first compound 15.81 µM,0.944
same,relative viability,HOP-62; first compound 50 µM,0.894
same,relative viability,HOP-62; first compound 158.11 µM,0.627
same,relative viability,HOP-62; first compound 500 µM,0.607
same,relative viability,COR-L23; first compound 5 µM,0.58
same,relative viability,COR-L23; first compound 15.81 µM,0.61
same,relative viability,COR-L23; first compound 50 µM,0.664
same,relative viability,COR-L23; first compound 158.11 µM,0.108
same,relative viability,COR-L23; first compound 500 µM,0.0308
same,relative viability,NCI-H322M; first compound 5 µM,0.777
same,relative viability,NCI-H322M; first compound 15.81 µM,0.781
same,relative viability,NCI-H322M; first compound 50 µM,0.826
same,relative viability,NCI-H322M; first compound 158.11 µM,0.53
same,relative viability,NCI-H322M; first compound 500 µM,0.0612
same,relative viability,NCI-H1651; first compound 5 µM,0.867
same,relative viability,NCI-H1651; first compound 15.81 µM,0.932
same,relative viability,NCI-H1651; first compound 50 µM,0.841
same,relative viability,NCI-H1651; first compound 158.11 µM,0.185
same,relative viability,NCI-H1651; first compound 500 µM,0.118
same,relative viability,NCI-H2347; first compound 5 µM,0.279
same,relative viability,NCI-H2347; first compound 15.81 µM,0.344
same,relative viability,NCI-H2347; first compound 50 µM,0.746
same,relative viability,NCI-H2347; first compound 158.11 µM,0.548
same,relative viability,NCI-H2347; first compound 500 µM,0.833
same,relative viability,NCI-H2228; first compound 5 µM,0.145
same,relative viability,NCI-H2228; first compound 15.81 µM,0.205
same,relative viability,NCI-H2228; first compound 50 µM,0.137
same,relative viability,NCI-H2228; first compound 158.11 µM,0.141
same,relative viability,NCI-H2228; first compound 500 µM,0.0612
same,relative viability,CAL-12T; first compound 5 µM,0.349
same,relative viability,CAL-12T; first compound 15.81 µM,0.325
same,relative viability,CAL-12T; first compound 50 µM,0.377
same,relative viability,CAL-12T; first compound 158.11 µM,0.0292
same,relative viability,CAL-12T; first compound 500 µM,0.0074
same,relative viability,LC-2-ad; first compound 5 µM,1.02
same,relative viability,LC-2-ad; first compound 15.81 µM,0.958
same,relative viability,LC-2-ad; first compound 50 µM,0.847
same,relative viability,LC-2-ad; first compound 158.11 µM,0.235
same,relative viability,LC-2-ad; first compound 500 µM,0.0688
same,relative viability,NCI-H647; first compound 5 µM,0.133
same,relative viability,NCI-H647; first compound 15.81 µM,0.152
same,relative viability,NCI-H647; first compound 50 µM,0.113
same,relative viability,NCI-H647; first compound 158.11 µM,0.144
same,relative viability,NCI-H647; first compound 500 µM,0.119
same,relative viability,NCI-H661; first compound 5 µM,0.887
same,relative viability,NCI-H661; first compound 15.81 µM,0.904
same,relative viability,NCI-H661; first compound 50 µM,0.916
same,relative viability,NCI-H661; first compound 158.11 µM,0.468
same,relative viability,NCI-H661; first compound 500 µM,0.141
same,relative viability,NCI-H2085; first compound 5 µM,0.43
same,relative viability,NCI-H2085; first compound 15.81 µM,0.371
same,relative viability,NCI-H2085; first compound 50 µM,0.406
same,relative viability,NCI-H2085; first compound 158.11 µM,0.177
same,relative viability,NCI-H2085; first compound 500 µM,0.118
same,relative viability,NCI-H1395; first compound 5 µM,0.672
same,relative viability,NCI-H1395; first compound 15.81 µM,0.828
same,relative viability,NCI-H1395; first compound 50 µM,0.749
same,relative viability,NCI-H1395; first compound 158.11 µM,0.665
same,relative viability,NCI-H1395; first compound 500 µM,0.659
